According to patent US4039550A, “Lower-alkyl (5-substituted-2-pyridyl)carbamodithioates” (Sterling Drug Inc., priority 1976, dated 1977):

Key:
H. nana = assay: Anthelmintic screening in mice against H. nana (tapeworm), four-day medication; type: in vivo, Hymenolepis nana in Swiss mice; settings: 200 mg./kg./day p.o. for four days
Protocol: In tests against the tapeworm, H. nana, Swiss mice weighing approximately 20 grams were infected with approximately 12,000 ova of H. nana administered in 10% gelatin via stomach tube. The test compounds, made up in 10% gelatin, were administered via stomach tube in equally divided doses daily for four consecutive days beginning twelve days after infection. Four days after the final medication, the animals were sacrificed and examined for the presence of worms. Efficacy was judged by the percent of mice cleared compared to non-medicated control mice.
(§1) Data obtained in anthelmintic screening tests against the helminth infections, N. dubius (a), H. nana (b) and S. obvelata (c), are given in the table below. Results are expressed in terms of the percent of animals cleared at a standard dose of 200 mg./kg./day (p.o.) for four days; as percent of animals cleared at a single dose (S.D.) of 25 mg./kg.; or as an ED50 on single dose administration (ED50) against N. dubius.

S. obvelata = assay: Anthelmintic screening in mice against S. obvelata (pinworm), four-day medication; type: in vivo, Syphacia obvelata in Swiss mice; settings: 200 mg./kg./day p.o. for four days
Text: The same test procedures described above were used to assess the effectiveness of the compounds against S. obvelata, a naturally occurring pinworm infection in Swiss mice. Efficacy was judged by the percent of mice cleared of the infection compared to non-medicated control mice.
as §1

N. dubius [1] = assay: Anthelmintic screening in mice against N. dubius (roundworm), four-day medication; type: in vivo, Nematospiroides dubius in Swiss mice; settings: 200 mg./kg./day p.o. for four days
Protocol: (§2) Anthelmintic activity was determined in mice against one species of roundworm (Nematospiroides dubius), one species of pinworm (Syphacia obvelata) and one species of tapeworm (Hymenolepis nana). The various test procedures used are described as follows: Swiss mice weighing approximately 20 grams were infected with approximately 20 larvae of N. dubius which were administered in 10% gelatin via stomach tube. For screening purposes, compounds, made up in 10% galatin, were administered via stomach tube in equally divided daily doses for four consecutive days beginning fourteen days after infection. Four days after the final medication, the animals were sacrificed and examined for the presence of worms. Efficacy against N. dubius was judged on the basis of percent worm reduction compared to control non-medicated mice. In addition, for the purpose of evaluation, the compounds were administered orally to a series of animals at graded doses, each animal receiving a single dose, and the results against N. dubius expressed in terms of an Effective Dose50 (ED50), the ED50 representing the dose necessary to remove 50% of the worm burden.
as §1

N. dubius [2] = assay: Anthelmintic single-dose test in mice against N. dubius (S.D. and ED50); type: in vivo, Nematospiroides dubius in Swiss mice; settings: for ED50: Heligmosomoides polygyrus, against N. dubius, single oral dose, dose necessary to remove 50% of the worm burden, read-out: ED50 on single dose administration
Protocol: as §2, §1

bacteria = settings: Foye et al., J. Am. Pharm. Assoc. 47, 556-558 (1958); cited from earlier work

Row | SMILES | % Cleared/200 mg./kg. (b) (H. nana) | % Cleared/200 mg./kg. (c) (S. obvelata) | % Cleared/200 mg./kg. (a) (N. dubius [1]) | S.D. (percent of animals cleared at a single dose) (N. dubius [2]; single dose of 25 mg./kg., mice) | ED50 (N. dubius [2]) | anti-bacterial activity (bacteria)
1 | CSC(=S)Nc1ccc(N(C)C)cn1 [Example 3, methyl (5-dimethylamino-2-pyridyl)carbamodithioate] | 0% | 0% | 100% | 64.5% |  | 
2 | CSC(=S)Nc1ccc(Cl)cn1 [Example 1, methyl (5-chloro-2-pyridyl)carbamodithioate] | 80% | 40% | 100% |  | 2 ± 0.917 mg/kg | 
3 | CSC(=S)Nc1ccc(C)cn1 [Example 2, methyl (5-methyl-2-pyridyl)carbamodithioate] | 30% | 30% | 100% |  | 7.75 ± 3.54 mg/kg | 
4 | CCSC(=S)Nc1ccccn1 [Ethyl (2-pyridyl)-carbamodithioate] |  |  |  |  |  | active as an anti-bacterial agent
